Source: ChEMBL document CHEMBL5506068 (J Med Chem, 2024)
Activity calls are given as the source filed them. No cut-off for these calls is given here.

Experiments:
[1] = target: Mu-type opioid receptor (Mus musculus, UniProt P42866); assay: Displacement of [3H]Naloxone from mouse MOR expressed in CHO cells assessed as dissociation constant incubated for […] by radioligand binding assay; format: cell-based
[2] = tested on: Mus musculus; assay: Antinociception activity in male Swiss Webster mouse model assessed as increase in maximum possible effect at 10 mg/kg, sc measured after 20 mins by warm-water tail immersion assay relative to control; format: functional
[3] = target: Kappa-type opioid receptor (Mus musculus, UniProt P33534); assay: Displacement of [3H]diprenorphine from mouse KOR expressed in CHO cells assessed as dissociation constant incubated for […] by radioligand binding assay; format: cell-based
Chain of Kappa-type opioid receptor (P33534 whole entry): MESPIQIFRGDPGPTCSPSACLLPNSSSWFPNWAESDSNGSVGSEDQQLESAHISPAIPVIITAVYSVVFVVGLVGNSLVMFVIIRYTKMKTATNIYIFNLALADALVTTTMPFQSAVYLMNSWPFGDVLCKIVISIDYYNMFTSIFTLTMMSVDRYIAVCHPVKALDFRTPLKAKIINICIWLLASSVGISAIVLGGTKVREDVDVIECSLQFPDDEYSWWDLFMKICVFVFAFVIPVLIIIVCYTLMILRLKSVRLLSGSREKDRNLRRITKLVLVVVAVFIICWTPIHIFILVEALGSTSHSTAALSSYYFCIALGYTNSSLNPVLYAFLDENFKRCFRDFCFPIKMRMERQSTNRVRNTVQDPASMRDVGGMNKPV

[4] = target: T1, Delta-type opioid receptor (Homo sapiens, UniProt P41143); assay: Displacement of [3H]diprenorphine from human DOR expressed in CHO cells assessed as dissociation constant incubated for […] by radioligand binding assay; format: cell-based
T1 sequence (P41143 whole entry): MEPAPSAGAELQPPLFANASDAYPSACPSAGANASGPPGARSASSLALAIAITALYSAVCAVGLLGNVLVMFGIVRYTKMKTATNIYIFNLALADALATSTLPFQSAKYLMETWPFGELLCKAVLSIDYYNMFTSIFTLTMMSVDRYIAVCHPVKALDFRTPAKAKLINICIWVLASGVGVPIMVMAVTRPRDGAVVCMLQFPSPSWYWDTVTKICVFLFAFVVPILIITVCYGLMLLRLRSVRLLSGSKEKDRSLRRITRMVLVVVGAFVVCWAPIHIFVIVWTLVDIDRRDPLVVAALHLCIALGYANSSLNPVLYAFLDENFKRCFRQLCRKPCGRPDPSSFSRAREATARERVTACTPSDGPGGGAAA

[5] = tested on: Mus musculus; assay: Antinociception activity in male Swiss Webster mouse model assessed as increase in maximum possible effect at 10 mg/kg, sc administered as single dose measured after 20 mins in presence of morphine by warm-water tail immersion assay relative to control; format: functional
[6] = target: T1, Delta-type opioid receptor; assay: Agonist activity at human DOR expressed in CHO cells increase in [35S]GTPgammaS binding measured after […] by scintillation counter analysis relative to SNC80; format: functional, cell-based; details: filed as agonist
[7] = tested on: Mus musculus; assay: Antinociception activity in male Swiss Webster mouse model assessed as increase in maximum possible effect at 0.1 mg/kg, sc measured after 30 to 180 mins post injection by warm-water tail immersion assay; format: functional, organism-based; details: time 30-180 min
[8] = Toxicity in Swiss Webster mouse assessed as reduction in sedative effect at 0.1 to 0.5 mg/kg,sc; format: organism-based; details: in vivo, dose 0.1-0.5 mg/kg
[9] = Toxicity in Swiss Webster mouse assessed as effect on locomotion at 0.1 to 0.5 mg/kg,sc measured after 30 mins; format: organism-based; details: in vivo, 0.5 h, dose 0.1-0.5 mg/kg
[10] = Toxicity in Swiss Webster mouse assessed as effect on average speed at 0.1 to 0.5 mg/kg,sc measured after 30 mins; format: organism-based; details: in vivo, 0.5 h, dose 0.1-0.5 mg/kg
[11] = Abuse liability in male Sprague-Dawley rat assessed as reduction in reinforcement at 0.32 to 10 microg/kg administered per infusion; format: toxicity; details: in vivo, iv, dose 0.32-10 µg/kg
[12] = Drug uptake in Swiss Webster mouse plasma at 0.1 mg/kg, sc measured after 5 mins by LC-MS/MS analysis; format: ADME, organism-based; details: in vivo
[13] = tested on: Mus musculus; assay: Antinociception activity in male Swiss Webster mouse model assessed as effect on tail withdrawal latency at 0.1 mg/kg, sc pre incubated with naltrindole for 30 mins followed by compound addition and measured after 20 mins by warm water tail immersion assay; format: functional, organism-based
[14] = tested on: Mus musculus; assay: Antinociception activity in male Swiss Webster mouse model assessed as effect on tail withdrawal latency at 0.1 mg/kg, sc pre incubated with nor-BNI for 24 hrs followed by compound addition and measured after 20 mins by warm water tail immersion assay; format: functional, organism-based
[15] = tested on: Mus musculus; assay: Antinociception activity in male Swiss Webster mouse model assessed as effect on tail withdrawal latency at 0.1 mg/kg, sc pre incubated with naltrindole/nor-BNI for 24 hrs followed by compound addition and measured after 20 mins by warm water tail immersion assay; format: functional, organism-based
[16] = in vivo; details: Swiss Webster, mouse, blood and plasma, sc, 0.1 mg/kg
Description: Ratio of drug level in Swiss Webster mouse blood to plasma at 0.1 mg/kg, sc measured after 30 mins by LC-MS/MS analysis

[17] = in vivo; details: Swiss Webster, mouse, blood and plasma, sc, 0.1 mg/kg; remark: listed apart in the source
Description: Ratio of drug level in Swiss Webster mouse blood to plasma at 0.1 mg/kg, sc measured after 60 mins by LC-MS/MS analysis

Chain of Mu-type opioid receptor (P42866 whole entry): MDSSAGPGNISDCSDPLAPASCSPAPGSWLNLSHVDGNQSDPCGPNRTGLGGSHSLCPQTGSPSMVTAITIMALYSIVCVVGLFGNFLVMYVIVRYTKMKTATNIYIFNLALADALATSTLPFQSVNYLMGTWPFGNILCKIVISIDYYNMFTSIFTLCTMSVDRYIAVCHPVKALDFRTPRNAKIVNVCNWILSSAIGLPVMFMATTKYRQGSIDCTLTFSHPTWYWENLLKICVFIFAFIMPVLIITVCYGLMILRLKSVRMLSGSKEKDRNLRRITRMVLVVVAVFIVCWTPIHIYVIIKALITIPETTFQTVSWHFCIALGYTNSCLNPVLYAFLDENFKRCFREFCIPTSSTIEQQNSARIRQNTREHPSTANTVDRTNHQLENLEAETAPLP

## Cl.O=C(CCc1ccco1)N[C@H]1CC[C@@]2(O)[C@H]3Cc4ccc(O)c5c4[C@@]2(CCN3CC2CC2)[C@H]1O5
[1]
  Kd: 0.72 nM
[2]
  MPE: <=40%

## Cl.O=C(CCc1ccco1)N[C@H]1CC[C@@]2(O)[C@H]3Cc4cccc5c4[C@@]2(CCN3CC2CC2)[C@H]1O5
[3]
  Kd: 73.8 nM
[1]
  Kd: 53.1 nM
[4]
  Kd: 90.2 nM
[2]
  MPE: <=40%
[5]
  MPE: 80%

## Cl.O=C(/C=C/c1ccco1)N[C@@H]1CC[C@@]2(O)[C@H]3Cc4cccc5c4[C@@]2(CCN3CC2CC2)[C@H]1O5
[3]
  Kd: 7.03 nM
[1]
  Kd: 42.4 nM
[4]
  Kd: 551 nM
[2]
  MPE: <=40%
[6]
  Emax: 81%
[5]
  MPE: 100%

## Cl.O=C(CCc1ccco1)N[C@@H]1CC[C@@]2(O)[C@H]3Cc4ccc(O)c5c4[C@@]2(CCN3CC2CC2)[C@H]1O5
[3]
  Kd: 0.61 nM
[1]
  Kd: 0.28 nM
[4]
  Kd: 33 nM
[2]
  MPE: <=40%
[5]
  MPE: 40%

## CN(C(=O)/C=C/c1ccco1)[C@H]1CC[C@@]2(O)[C@H]3Cc4ccc(O)c5c4[C@@]2(CCN3CC2CC2)[C@H]1O5.Cl
[3]
  Kd: 0.14 nM
[1]
  Kd: 0.2 nM
[4]
  Kd: 0.93 nM
[2]
  MPE: 80%
[6]
  Emax: 83.2%
[7]
  Activity: Active
[8]
  Activity: Toxic
[9]
  Activity: Toxic
[10]
  Activity: Toxic
[11]
  Activity: Non-Toxic
[12]
  Drug uptake: Active
[13]
  Activity: inactive
[14]
  Activity: inactive
[15]
  Activity: inactive
[16]
  blood plasma ratio at 0.5 h: 0.633
[17]
  blood plasma ratio at 1 h: 0.938

## CN(C(=O)CCc1ccoc1)[C@H]1CC[C@@]2(O)[C@H]3Cc4cccc5c4[C@@]2(CCN3CC2CC2)[C@H]1O5.Cl
[3]
  Kd: 0.48 nM
[1]
  Kd: 7.74 nM
[4]
  Kd: 48.6 nM
[2]
  MPE: 80%

## Cl.O=C(CCc1ccco1)N[C@@H]1CC[C@@]2(O)[C@H]3Cc4cccc5c4[C@@]2(CCN3CC2CC2)[C@H]1O5
[3]
  Kd: 23.6 nM
[1]
  Kd: 27.5 nM
[4]
  Kd: 800 nM
[2]
  MPE: 40%

## CN(C(=O)/C=C/c1ccco1)[C@H]1CC[C@@]2(O)[C@H]3Cc4cccc5c4[C@@]2(CCN3CC2CC2)[C@H]1O5.Cl
[3]
  Kd: 0.62 nM
[1]
  Kd: 16.8 nM
[4]
  Kd: 68.4 nM
[2]
  MPE: 80%
[6]
  Emax: 102%

## Cl.O=C(CCc1ccoc1)N[C@H]1CC[C@@]2(O)[C@H]3Cc4ccc(O)c5c4[C@@]2(CCN3CC2CC2)[C@H]1O5
[1]
  Kd: 0.44 nM
[2]
  MPE: <=40%
[5]
  MPE: 100%

## Cl.O=C(CCc1ccoc1)N[C@@H]1CC[C@@]2(O)[C@H]3Cc4ccc(O)c5c4[C@@]2(CCN3CC2CC2)[C@H]1O5
[1]
  Kd: 0.21 nM
[2]
  MPE: <=40%

## CN(C(=O)CCc1ccco1)[C@H]1CC[C@@]2(O)[C@H]3Cc4cccc5c4[C@@]2(CCN3CC2CC2)[C@H]1O5.Cl
[3]
  Kd: 1 nM
[1]
  Kd: 14.1 nM
[4]
  Kd: 46.8 nM
[2]
  MPE: 40%

## Cl.O=C(CCc1ccoc1)N[C@@H]1CC[C@@]2(O)[C@H]3Cc4cccc5c4[C@@]2(CCN3CC2CC2)[C@H]1O5
[3]
  Kd: 8.37 nM
[1]
  Kd: 17.3 nM
[4]
  Kd: 749 nM
[2]
  MPE: 40%

## Cl.O=C(/C=C/c1ccco1)N[C@H]1CC[C@@]2(O)[C@H]3Cc4ccc(O)c5c4[C@@]2(CCN3CC2CC2)[C@H]1O5
[3]
  Kd: 1.08 nM
[1]
  Kd: 0.53 nM
[4]
  Kd: 8.75 nM
[2]
  MPE: 100%
